{"source": "patent US20090275099A1", "about": "(priority 2004, published 2009)", "key": {"[1]": {"system": "human skin in organ culture", "assay": "RA-induced epidermal hyperplasia in human skin organ culture", "conditions": "RA-exposed skin, Bz-423 5 μg/ml", "excerpt": "Replicate 2 mm full-thickness punch biopsies of sun-protected hip skin were obtained from young adult volunteers. The participation of human subjects in this project was approved by the University of Michigan Institutional Review Board, and all subjects provided written informed-consent prior to their inclusion in the study. Immediately upon biopsy, the tissue was immersed in culture medium consisting of Keratinocyte Basal Medium (KBM) (Cambrex Bioscience, Walkersville, Md.). KBM is a low-Ca^2+, serum-free modification of MCDB-153 medium optimized for high-density keratinocyte growth. It was supplemented with CaCl2 to bring the final Ca^2+ concentration to 1.4 mM. After transport to the laboratory on ice, the biopsies were incubated in a 24-well dish containing 250 μl of Ca^2+-supplemented KBM with or without additional treatments (e.g., RA and/or Bz-423). Cultures were incubated at 37° C. in an atmosphere of 95% air and 5% CO2. Other than to maintain the tissue in a minimal volume of medium, nothing further was done to ensure a strict air-liquid interface. Incubation was for 8 days, with change of medium and fresh treatments every second day. […] Average thickness values for untreated, retinoid exposed, and retinoid plus Bz-423-treated biopsies were determined. […]"}, "B cells": {"system": "B cells", "assay": "collapse of ΔΨm detected with DiOC6(3)", "type": "cell-based", "conditions": "by 5 hours", "protocol": "(§1) To detect O2^−, cells are incubated with DHE (10 μM) for 30 min at 37° C. and are analyzed by flow cytometry to measure ethidium fluorescence. Flow analysis of mitochondrial transmembrane potential (ψm) is conducted by labeling cells with DiOC6(3) (20 nM) for 15 min at 37 degrees C. A positive control for disruption of ψm is established using carbonyl cyanide m-chlorophenylhydrazone (CCCP, 50 μM). Caspase activation assays are performed with FAM-VAD-fluoromethylketone. Processing of the substrate is evaluated by flow cytometry.\nTo characterize the death mechanism engaged by Bz-423, intracellular ROS, ΔΨm, cytochrome c release, caspase activation, and DNA fragmentation were measured over time (the results presented are for B cells but do characterize the response in many different cell types). The first event detected after exposure to Bz-423 is an increase in the fraction of cells that stain with dihyroethedium (DHE), a redox-sensitive agent that reacts specifically with O2^−.\nCollapse of ΔΨm was detected using DiOC6(3), a mitochondria-selective potentiometric probe."}, "Ramos cells [2]": {"system": "Ramos cells", "assay": "cell culture cytotoxicity assays", "type": "cell-based, human", "conditions": "10% FBS", "protocol": "Like most 1,4-benzodiazepines, Bz-423 binds strongly to bovine serum albumin (BSA), which reduces the effective concentration of drug free in solution. For example, in tissue culture media containing 10% (v/v) fetal bovine serum (FBS), ca. 99% of the drug is bound to BSA. Therefore, cell culture cytotoxicity assays are conducted in media with 2% FBS to reduce binding to BSA and increase the free [Bz-423]. Under these conditions, the dose response-curve is quite sharp such that there is a limited concentration range at which Bz-423 is only partly effective. Since some benzodiazepines are known to have anti-proliferative properties, the effect of Bz-423 at concentrations <ED50 were carefully analyzed and observed that in addition to inducing apoptosis, Bz-423 prevented cell growth after 3 d in culture. In these low serum conditions, the cytotoxic and anti-proliferative effects overlapped making it difficult to study each effect independently. […] While higher amounts of drug may also block proliferation, it caused apoptosis well before the effects on proliferation could be observed.\nTo confirm the decrease in cell number relative to control cells after 3 d of treatment is due to decreased proliferation and not cell death balanced by proliferation, in addition to cell counting, cell divisions were studied. PKH-67 is a fluorescent probe that binds irreversibly to cell membranes and upon cell division is partitioned equally between the daughter cells, making it possible to quantify cell division by flow cytometry. Ramos cells stained with PKH67 and treated with Bz-423 had fewer cell divisions at sub-cytotoxic concentrations which confirmed that the decrease in cell number was due to anti-proliferative affects and not cell death. To determine if Bz-423 induced anti-proliferation was specific to Ramos cells, cell counting and cell cycle experiments were done in other B cell lines and cell lines derived from solid tumors."}, "[3]": {"target": "peripheral benzodiazepine receptor (“PBR”) (Homo sapiens, UniProt P30536)", "sequence (P30536 whole entry, species assumed)": "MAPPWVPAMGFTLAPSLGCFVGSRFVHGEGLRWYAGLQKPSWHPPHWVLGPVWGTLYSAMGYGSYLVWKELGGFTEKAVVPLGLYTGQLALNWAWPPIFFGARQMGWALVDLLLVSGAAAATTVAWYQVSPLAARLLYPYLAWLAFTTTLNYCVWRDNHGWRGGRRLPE", "assay": "binding to the peripheral benzodiazepine receptor"}, "human OSCP": {"target": "T1, human OSCP (Homo sapiens, UniProt P48047)", "T1 construct": "made in house; host or cells: E. coli", "T1 sequence (P48047 24-213)": "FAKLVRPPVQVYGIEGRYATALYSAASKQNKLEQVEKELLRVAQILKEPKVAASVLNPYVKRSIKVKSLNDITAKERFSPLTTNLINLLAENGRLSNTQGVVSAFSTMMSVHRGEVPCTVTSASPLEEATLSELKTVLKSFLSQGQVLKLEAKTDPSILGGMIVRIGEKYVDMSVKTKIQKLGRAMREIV", "assay": "OSCP binding by quenching of intrinsic protein fluorescence", "excerpt": "To determine if Bz-423 indeed binds to the OSCP and the affinity of the interaction, human OSCP was overexpressed in E. coli. […] Bz-423 is the only known inhibitor of the ATPase that functions through binding to the OSCP."}, "Ramos cells [4]": {"system": "Ramos cells", "assay": "early O2− (ROS) response, 1 h", "type": "cell-based, human", "conditions": "Homo sapiens, Ramos, 1 h, read-out: ROS EC50 (μM), Ramos cells", "protocol": "as §1\nSince an early mitochondrial superoxide (O2^−) mediates apoptosis induced by Bz-423, the O2^− response of cells 1 h following incubation with drug was examined, as well as cell death at 24 h, as previously described (see, e.g., Blatt, N. B., et al., 2002 J Clin Invest 110, 1123-1132; incorporated herein by reference in its entirety)."}}, "data": [{"smiles": "CN1C(=O)C(Cc2ccc3ccccc3c2)N=C(c2ccc(O)cc2)c2cc(Cl)ccc21", "note": "(stereo not shown) [Bz-423]", "values": [{"measurement": "histologic finding at high concentration", "setting": "[1]", "value": "necrosis was observed"}, {"measurement": "cells with collapse of ΔΨm", "setting": "B cells", "value": "> 90", "unit": "%"}, {"measurement": "amounts of drug with minimal cytotoxicity", "setting": "Ramos cells [2]", "value": "10 to 15", "unit": "µM"}, {"measurement": "concentrations at which only apoptosis was observed", "setting": "Ramos cells [2]", "value": "> 20", "unit": "µM"}, {"measurement": "Kd", "setting": "[3]", "value": "~1000", "unit": "nM"}, {"measurement": "Kd", "setting": "human OSCP", "value": "200 ± 40", "unit": "nM"}, {"measurement": "EC50", "setting": "Ramos cells [4]", "value": 7.3, "unit": "µM"}]}]}
